Test results as given in ChEMBL document CHEMBL2016493, “Design, synthesis, synergistic antimicrobial activity and cytotoxicity of 4-aryl substituted 3,4-dihydropyrimidinones of curcumin” (Bioorg Med Chem Lett, 2012).
The source made the active and inactive calls. The calls are words filed in the database; no cut-off is given here.

Legend:
Aspergillus flavus [1] = experiment: Antifungal activity against Aspergillus flavus MTCC 1021 at 160 uM/ml after 48 hrs by paper disc diffusion method; format: functional
Curvularia lunata [2] = experiment: Antifungal activity against Curvularia lunata MTCC 581 at 40 uM/ml after 48 hrs by paper disc diffusion method; format: functional; conditions: for zone of inhibition at 40 µM: MTCC 581, 48 h, read-out: IZ
Aspergillus niger [3] = experiment: Antifungal activity against Aspergillus niger MTCC 1108 after 48 hrs by poison food method; format: functional
Curvularia lunata [4] = experiment: Antifungal activity against Curvularia lunata MTCC 581 at 20 uM/ml after 48 hrs by paper disc diffusion method; format: functional
Trichoderma viride [5] = experiment: Antifungal activity against Trichoderma viride MTCC 1107 at 40 uM/ml after 48 hrs by paper disc diffusion method; format: functional; conditions: for zone of inhibition: MTCC 1107, 48 h, read-out: IZ
Trichoderma viride [6] = experiment: Antifungal activity against Trichoderma viride MTCC 1107 at 20 uM/ml after 48 hrs by paper disc diffusion method; format: functional
Curvularia lunata [7] = experiment: Antifungal activity against Curvularia lunata MTCC 581 at 160 uM/ml after 48 hrs by paper disc diffusion method; format: functional; conditions: MTCC 581, 48 h, read-out: IZ
Trichoderma viride [8] = experiment: Antifungal activity against Trichoderma viride MTCC 1107 at 160 uM/ml after 48 hrs by paper disc diffusion method; format: functional; conditions: MTCC 1107, 48 h, read-out: IZ
Curvularia lunata [9] = experiment: Antifungal activity against Curvularia lunata MTCC 581 at 80 uM/ml after 48 hrs by paper disc diffusion method; format: functional; conditions: MTCC 581, 48 h, read-out: IZ
Trichoderma viride [10] = experiment: Antifungal activity against Trichoderma viride MTCC 1107 at 80 uM/ml after 48 hrs by paper disc diffusion method; format: functional; conditions: for zone of inhibition at 80 µM: MTCC 1107, 48 h, read-out: IZ
Aspergillus niger [11] = experiment: Antifungal activity against Aspergillus niger MTCC 1108 at 160 uM/ml after 48 hrs by paper disc diffusion method; format: functional
Salmonella typhimurium [12] = experiment: Antibacterial activity against Salmonella typhimurium ATCC 23564 at 40 uM/ml after 24 hrs by kirby-bauer method; format: functional
Pseudomonas aeruginosa [13] = experiment: Antibacterial activity against Pseudomonas aeruginosa ATCC 15499 at 80 uM/ml after 24 hrs by kirby-bauer method; format: functional; conditions: ATCC 15499, 24 h, read-out: IZ
Escherichia coli [14] = experiment: Antibacterial activity against Escherichia coli ATCC 35218 at 20 uM/ml after 24 hrs by kirby-bauer method; format: functional
Aspergillus flavus [15] = experiment: Antifungal activity against Aspergillus flavus MTCC 1021 at 80 uM/ml after 48 hrs by paper disc diffusion method; format: functional; conditions: MTCC 1021, 48 h, read-out: IZ
[16] = system: Burkholderia pseudomallei; experiment: Antibacterial activity against Burkholderia pseudomallei NTCC 10274 at 160 uM/ml after 24 hrs by kirby-bauer method; format: functional; conditions: NTCC 10274, 24 h, read-out: IZ
Aspergillus niger [17] = experiment: Antifungal activity against Aspergillus niger MTCC 1108 at 80 uM/ml after 48 hrs by paper disc diffusion method; format: functional
Staphylococcus aureus [18] = experiment: Antibacterial activity against Staphylococcus aureus ATCC 11632 at 160 uM/ml after 24 hrs by kirby-bauer method; format: functional
Aspergillus flavus [19] = experiment: Antifungal activity against Aspergillus flavus MTCC 1021 at 40 uM/ml after 48 hrs by paper disc diffusion method; format: functional
Pseudomonas aeruginosa [20] = experiment: Antibacterial activity against Pseudomonas aeruginosa ATCC 15499 at 20 uM/ml after 24 hrs by kirby-bauer method; format: functional
[21] = system: Burkholderia pseudomallei; experiment: Antibacterial activity against Burkholderia pseudomallei NTCC 10274 at 20 uM/ml after 24 hrs by kirby-bauer method; format: functional
Escherichia coli [22] = experiment: Antibacterial activity against Escherichia coli ATCC 35218 at 80 uM/ml after 24 hrs by kirby-bauer method; format: functional; conditions: ATCC 35218, 24 h, read-out: IZ
Escherichia coli [23] = experiment: Antibacterial activity against Escherichia coli ATCC 35218 at 40 uM/ml after 24 hrs by kirby-bauer method; format: functional
Escherichia coli [24] = experiment: Antibacterial activity against Escherichia coli ATCC 35218 at 160 uM/ml after 24 hrs by kirby-bauer method; format: functional; conditions: ATCC 35218, 24 h, read-out: IZ
Salmonella typhimurium [25] = experiment: Antibacterial activity against Salmonella typhimurium ATCC 23564 at 80 uM/ml after 24 hrs by kirby-bauer method; format: functional, Salmonella enterica subsp. enterica serovar Typhimurium; conditions: Salmonella enterica, ATCC 23564, 24 h; read-out: IZ
Staphylococcus aureus [26] = experiment: Antibacterial activity against Staphylococcus aureus ATCC 11632 at 40 uM/ml after 24 hrs by kirby-bauer method; format: functional; conditions: ATCC 11632, 24 h, read-out: IZ
Salmonella typhimurium [27] = experiment: Antibacterial activity against Salmonella typhimurium ATCC 23564 at 160 uM/ml after 24 hrs by kirby-bauer method; format: functional, Salmonella enterica subsp. enterica serovar Typhimurium; conditions: Salmonella enterica, ATCC 23564, 24 h; read-out: IZ
QG-56 = experiment: Cytotoxicity against human QG56 cells after 48 hrs by MTT assay; format: functional, cell-based
Pseudomonas aeruginosa [28] = experiment: Antibacterial activity against Pseudomonas aeruginosa ATCC 15499 at 40 uM/ml after 24 hrs by kirby-bauer method; format: functional
[29] = system: Burkholderia pseudomallei; experiment: Antibacterial activity against Burkholderia pseudomallei NTCC 10274 at 80 uM/ml after 24 hrs by kirby-bauer method; format: functional; conditions: NTCC 10274, 24 h, read-out: IZ
Staphylococcus aureus [30] = experiment: Antibacterial activity against Staphylococcus aureus ATCC 11632 at 20 uM/ml after 24 hrs by kirby-bauer method; format: functional; conditions: ATCC 11632, 24 h, read-out: IZ
Staphylococcus aureus [31] = experiment: Antibacterial activity against Staphylococcus aureus ATCC 11632 at 80 uM/ml after 24 hrs by kirby-bauer method; format: functional; conditions: ATCC 11632, 24 h, read-out: IZ
[32] = system: Burkholderia pseudomallei; experiment: Antibacterial activity against Burkholderia pseudomallei NTCC 10274 at 40 uM/ml after 24 hrs by kirby-bauer method; format: functional
Aspergillus niger [33] = experiment: Antifungal activity against Aspergillus niger MTCC 1108 at 20 uM/ml after 48 hrs by paper disc diffusion method; format: functional
Aspergillus flavus [34] = experiment: Antifungal activity against Aspergillus flavus MTCC 1021 at 20 uM/ml after 48 hrs by paper disc diffusion method; format: functional
Pseudomonas aeruginosa [35] = experiment: Antibacterial activity against Pseudomonas aeruginosa ATCC 15499 at 160 uM/ml after 24 hrs by kirby-bauer method; format: functional; conditions: ATCC 15499, 24 h, read-out: IZ
Salmonella typhimurium [36] = experiment: Antibacterial activity against Salmonella typhimurium ATCC 23564 at 20 uM/ml after 24 hrs by kirby-bauer method; format: functional; conditions: Salmonella enterica subsp. enterica serovar Typhimurium
Aspergillus niger [37] = experiment: Antifungal activity against Aspergillus niger MTCC 1108 at 40 uM/ml after 48 hrs by paper disc diffusion method; format: functional
Aspergillus flavus [38] = experiment: Antifungal activity against Aspergillus flavus MTCC 1021 after 48 hrs by poison food method MTCC 1021; format: functional

SMILES: OC(Cn1cncn1)(Cn1cncn1)c1ccc(F)cc1F [FLUCONAZOLE]
- inhibition zone (IZ) (Aspergillus flavus [1]): inactive
- zone of inhibition at 40 µM (Curvularia lunata [2]): 27 mm
- MIC (Aspergillus niger [3]): inactive
- zone of inhibition at 20 µM (Curvularia lunata [4]; MTCC 581, 48 h, read-out: IZ): 24 mm
- zone of inhibition (Trichoderma viride [5]): 24 mm
- zone of inhibition at 20 µM (Trichoderma viride [6]; MTCC 1107, 48 h, read-out: IZ): 21 mm
- zone of inhibition at 160 µM (Curvularia lunata [7]): 31 mm
- zone of inhibition at 160 µM (Trichoderma viride [8]): 32 mm
- zone of inhibition at 80 µM (Curvularia lunata [9]): 28 mm
- zone of inhibition at 80 µM (Trichoderma viride [10]): 29 mm
- inhibition zone (IZ) (Aspergillus niger [11]): inactive

SMILES: COc1cc(/C=C/C(=O)C2=C(/C=C/c3ccc(O)c(OC)c3)NC(=O)NC2c2ccccc2)ccc1O (configuration not stated)
- inhibition zone (IZ) (Salmonella typhimurium [12]; Salmonella enterica subsp. enterica serovar Typhimurium): inactive
- IC50 (HepG2): 50 uM/ml
- zone of inhibition at 80 µM (Pseudomonas aeruginosa [13]): 12 mm
- inhibition zone (IZ) (Escherichia coli [14]): inactive
- zone of inhibition at 80 µM (Aspergillus flavus [15]): 9 mm
- zone of inhibition at 160 µM (Aspergillus flavus [1]; MTCC 1021, 48 h, read-out: IZ): 11 mm
- zone of inhibition at 160 µM [16]: 19 mm
- inhibition zone (IZ) (Aspergillus niger [17]): inactive
- zone of inhibition at 160 µM (Staphylococcus aureus [18]; ATCC 11632, 24 h, read-out: IZ): 22 mm
- inhibition zone (IZ) (Aspergillus flavus [19]): inactive
- inhibition zone (IZ) (Pseudomonas aeruginosa [20]): inactive
- zone of inhibition at 40 µM (Curvularia lunata [2]): 9 mm
- zone of inhibition at 20 µM ([21]; NTCC 10274, 24 h, read-out: IZ): 14 mm
- zone of inhibition at 80 µM (Escherichia coli [22]): 9 mm
- inhibition zone (IZ) (Escherichia coli [23]): inactive
- inhibition zone (IZ) (Curvularia lunata [4]): inactive
- zone of inhibition at 160 µM (Escherichia coli [24]): 17 mm
- zone of inhibition at 80 µM (Salmonella typhimurium [25]): 8 mm
- zone of inhibition (Trichoderma viride [5]): 9 mm
- zone of inhibition at 40 µM (Staphylococcus aureus [26]): 17 mm
- IC50 (HCT-116): 25 uM/ml
- inhibition zone (IZ) (Trichoderma viride [6]): inactive
- zone of inhibition at 160 µM (Salmonella typhimurium [27]): 11 mm
- IC50 (QG-56): 50 uM/ml
- zone of inhibition at 40 µM (Pseudomonas aeruginosa [28]; ATCC 15499, 24 h, read-out: IZ): 9 mm
- zone of inhibition at 80 µM [29]: 17 mm
- zone of inhibition at 20 µM (Staphylococcus aureus [30]): 14 mm
- zone of inhibition at 80 µM (Staphylococcus aureus [31]): 19 mm
- zone of inhibition at 40 µM ([32]; NTCC 10274, 24 h, read-out: IZ): 16 mm
- inhibition zone (IZ) (Aspergillus niger [33]): inactive
- inhibition zone (IZ) (Aspergillus flavus [34]): inactive
- zone of inhibition at 160 µM (Curvularia lunata [7]): 18 mm
- zone of inhibition at 160 µM (Pseudomonas aeruginosa [35]): 14 mm
- inhibition zone (IZ) (Salmonella typhimurium [36]): inactive
- zone of inhibition at 160 µM (Trichoderma viride [8]): 14 mm
- zone of inhibition at 80 µM (Curvularia lunata [9]): 12 mm
- inhibition zone (IZ) (Aspergillus niger [37]): inactive
- zone of inhibition at 80 µM (Trichoderma viride [10]): 11 mm
- zone of inhibition at 160 µM (Aspergillus niger [11]; MTCC 1108, 48 h, read-out: IZ): 9 mm

SMILES: COc1cc(/C=C/C(=O)CC(=O)/C=C/c2ccc(O)c(OC)c2)ccc1O [CURCUMIN]
- zone of inhibition at 40 µM (Salmonella typhimurium [12]; Salmonella enterica, ATCC 23564, 24 h, read-out: IZ): 9 mm
- IC50 (HepG2): 50 uM/ml
- zone of inhibition at 80 µM (Pseudomonas aeruginosa [13]): 9 mm
- inhibition zone (IZ) (Escherichia coli [14]): inactive
- inhibition zone (IZ) (Aspergillus flavus [1]): inactive
- MIC (Aspergillus flavus [38]): inactive
- zone of inhibition at 160 µM [16]: 9 mm
- inhibition zone (IZ) (Staphylococcus aureus [18]): inactive
- inhibition zone (IZ) (Pseudomonas aeruginosa [20]): inactive
- inhibition zone (IZ) (Curvularia lunata [2]): inactive
- inhibition zone (IZ) [21]: inactive
- zone of inhibition at 80 µM (Escherichia coli [22]): 8 mm
- MIC (Aspergillus niger [3]): inactive
- inhibition zone (IZ) (Escherichia coli [23]): inactive
- inhibition zone (IZ) (Curvularia lunata [4]): inactive
- zone of inhibition at 160 µM (Escherichia coli [24]): 10 mm
- zone of inhibition at 80 µM (Salmonella typhimurium [25]): 10 mm
- inhibition zone (IZ) (Trichoderma viride [5]): inactive
- IC50 (HCT-116): 50 uM/ml
- inhibition zone (IZ) (Trichoderma viride [6]): inactive
- zone of inhibition at 160 µM (Salmonella typhimurium [27]): 12 mm
- IC50 (QG-56): 100 uM/ml
- inhibition zone (IZ) (Pseudomonas aeruginosa [28]): inactive
- zone of inhibition at 80 µM [29]: 8 mm
- inhibition zone (IZ) [32]: inactive
- zone of inhibition at 160 µM (Curvularia lunata [7]): 11 mm
- zone of inhibition at 160 µM (Pseudomonas aeruginosa [35]): 11 mm
- inhibition zone (IZ) (Salmonella typhimurium [36]): inactive
- zone of inhibition at 160 µM (Trichoderma viride [8]): 9 mm
- zone of inhibition at 80 µM (Curvularia lunata [9]): 9 mm
- inhibition zone (IZ) (Trichoderma viride [10]): inactive
- inhibition zone (IZ) (Aspergillus niger [11]): inactive
